Measurements: ChEMBL document CHEMBL4251741, “Amidate Prodrugs of Cyclic 9-(S)-[3-Hydroxy-2-(phosphonomethoxy)propyl]adenine with Potent Anti-Herpesvirus Activity” (ACS Med Chem Lett, 2018)

What was measured:
Human alphaherpesvirus 1 [1] = experiment: Antiviral activity against Herpes simplex virus 1 KOS infected in HEL cells assessed as inhibition of virus-induced cytopathic effect measured after 2 to 3 days post-infection; type: functional, organism-based; settings: Human alphaherpesvirus 1, KOS
Human betaherpesvirus 5 [2] = experiment: Antiviral activity against Human cytomegalovirus Davis infected in HEL cells assessed as inhibition of virus-induced cytopathic effect measured after 6 to 7 days post-infection; type: functional, organism-based; settings: Human betaherpesvirus 5, Davis
Human betaherpesvirus 5 [3] = experiment: Antiviral activity against Human cytomegalovirus AD169 infected in HEL cells assessed as inhibition of virus-induced cytopathic effect measured after 6 to 7 days post-infection; type: functional, organism-based; settings: Human betaherpesvirus 5, AD169, HEL
Human alphaherpesvirus 1 [4] = experiment: Antiviral activity against ACV-resistant thymidine kinase deficient Herpes simplex virus 1 KOS infected in HEL cells assessed as inhibition of virus-induced cytopathic effect measured after 2 to 3 days post-infection; type: functional, organism-based; settings: Human alphaherpesvirus 1, KOS
Human alphaherpesvirus 3 [5] = experiment: Antiviral activity against thymidine kinase expressing Varicella-Zoster virus Oka assessed as inhibition of plaque formation measured after 5 days post-infection; type: functional, organism-based; settings: Human alphaherpesvirus 3, strain Oka vaccine, 120 h
[6] = Cytotoxicity against HEL cells assessed as morphological changes after 3 days by microscopic analysis; type: cell-based; settings: human
Human alphaherpesvirus 2 = experiment: Antiviral activity against Herpes simplex virus 2 G infected in HEL cells assessed as inhibition of virus-induced cytopathic effect measured after 2 to 3 days post-infection; type: functional, organism-based; settings: Human alphaherpesvirus 2, strain G
[7] = Cytotoxicity against HEL cells assessed as reduction in cell viability after 3 days by coulter counting method; type: cell-based; settings: human
Human alphaherpesvirus 3 [8] = experiment: Antiviral activity against thymidine kinase deficient Varicella-Zoster virus 07-1 assessed as inhibition of plaque formation measured after 5 days post-infection; type: functional, organism-based; settings: Human alphaherpesvirus 3, 07-1, 120 h
[9] = Half life in human plasma at 1 uM by HPLC-MS/MS analysis; type: ADME, cell-free
[10] = Half life in human liver microsomes at 0.1 uM in presence of NADPH-generating system by HPLC-MS/MS analysis; type: ADME, microsome
[11] = Selectivity index, ratio of CC50 for HEL cells to EC50 for Herpes simplex virus 2 G infected in HEL cells; type: toxicity, cell-based; settings: human, read-out: Ratio CC50/EC50
[12] = Selectivity index, ratio of CC50 for HEL cells to EC50 for Herpes simplex virus 1 KOS infected in HEL cells; type: toxicity, cell-based; settings: human, read-out: Ratio CC50/EC50
[13] = Selectivity index, ratio of CC50 for HEL cells to EC50 for ACV-resistant thymidine kinase deficient Herpes simplex virus 1 KOS infected in HEL cells; type: toxicity, cell-based; settings: human, read-out: Ratio CC50/EC50
[14] = Selectivity index, ratio of CC50 for HEL cells to EC50 for Human cytomegalovirus AD169 infected in HEL cells; type: toxicity, cell-based; settings: read-out: Ratio CC50/EC50
[15] = Selectivity index, ratio of CC50 for HEL cells to EC50 for thymidine kinase deficient Varicella-Zoster virus 07-1 infected in HEL cells; type: toxicity, cell-based; settings: human, read-out: Ratio CC50/EC50
[16] = Selectivity index, ratio of CC50 for HEL cells to EC50 for thymidine kinase expressing Varicella-Zoster virus Oka infected in HEL cells; type: toxicity, cell-based; settings: human, read-out: Ratio CC50/EC50
[17] = Selectivity index, ratio of CC50 for HEL cells to EC50 for Human cytomegalovirus Davis infected in HEL cells; type: toxicity, cell-based; settings: read-out: Ratio CC50/EC50

SMILES | EC50 (Human alphaherpesvirus 1 [1]) | EC50 (Human betaherpesvirus 5 [2]) | EC50 (Human betaherpesvirus 5 [3]) | EC50 (Human alphaherpesvirus 1 [4]) | EC50 (Human alphaherpesvirus 3 [5]) | MCC at 72 h [6] | EC50 (Human alphaherpesvirus 2) | CC50 at 72 h [7] | EC50 (Human alphaherpesvirus 3 [8]) | half-life at 1 µM [9] | half-life at 0.1 µM [10] | selectivity ratio [11] | selectivity ratio [12] | selectivity ratio [13] | selectivity ratio [14] | selectivity ratio [15] | selectivity ratio [16] | selectivity ratio [17]
CCCCCOC(=O)[C@@H](NP1(=O)CO[C@@H](Cn2cnc3c(N)ncnc32)CO1)C(C)C (stereo partly drawn) | 3 nM | 4.8 nM | 5.9 nM | 1.8 nM | 0.57 nM | 4.4 µM | 4.2 nM | 7760 nM | 1.5 nM | – | – | – | – | – | – | – | – | –
CCCCCOC(=O)CC[C@H](NP1(=O)CO[C@@H](Cn2cnc3c(N)ncnc32)CO1)C(=O)OCCCCC (stereo partly drawn) | 1.2 nM | 7.6 nM | 14 nM | 1.2 nM | 0.58 nM | 13.2 µM | 2.5 nM | 520 nM | 0.95 nM | – | – | – | – | – | – | – | – | –
CCCCCOC(=O)[C@@H](NP(=O)(CO[C@H](CO)Cn1cnc2c(N)ncnc21)N[C@H](C(=O)OCCCCC)C(C)C)C(C)C | 2.3 nM | 72 nM | 100 nM | 0.9 nM | 1.5 nM | 8.57 µM | 2.8 nM | 600 nM | 0.95 nM | > 120 min | 4 min | – | – | – | – | – | – | –
Nc1nc2c(ncn2COCCO)c(=O)[nH]1 [ACYCLOVIR] | – | – | – | – | – | > 88.8 µM | – | – | – | – | – | – | – | – | – | – | – | –
CCCCCOC(=O)CC(NP1(=O)COC(Cn2cnc3c(N)ncnc32)CO1)C(=O)OCCCCC (single isomer, unassigned) | 210 nM | 1620 nM | 4390 nM | 76 nM | 33 nM | > 18.5 µM | 110 nM | 11600 nM | 62 nM | – | – | – | – | – | – | – | – | –
Nc1nc2c(ncn2CCC(CO)CO)c(=O)[nH]1 [PENCICLOVIR] | 480 nM | – | – | > 79000 nM | – | > 79 µM | 840 nM | > 395000 nM | – | – | – | – | – | – | – | – | – | –
CCCCCOC(=O)[C@H](Cc1ccccc1)NP1(=O)CO[C@@H](Cn2cnc3c(N)ncnc32)CO1 (stereo partly drawn) | 3.5 nM | 17 nM | 31 nM | 1.5 nM | 0.52 nM | 9.29 µM | 2.3 nM | 30600 nM | 3.2 nM | – | – | > 4400 | > 4400 | > 4400 | – | – | – | –
Nc1nc2c(ncn2COC(CO)CO)c(=O)[nH]1 [GANCICLOVIR] | – | – | 7410 nM | > 29500 nM | – | > 39.2 µM | 51 nM | > 319000 nM | – | – | – | – | – | – | – | – | – | –
O=c1[nH]c(=O)n([C@H]2C[C@H](O)[C@@H](CO)O2)cc1/C=C/Br [BRIVUDINE] | – | – | – | > 30000 nM | 53 nM | > 30 µM | > 30000 nM | > 300000 nM | 22100 nM | – | – | – | – | – | – | – | – | –
Nc1ccn(C[C@@H](CO)OCP(=O)(O)O)c(=O)n1 [CIDOFOVIR] | 4180 nM | – | – | 1950 nM | – | > 71.6 µM | 2730 nM | > 358000 nM | – | – | – | – | – | – | – | – | – | –
CCCCCOC(=O)[C@H](CC(C)C)NP1(=O)CO[C@@H](Cn2cnc3c(N)ncnc32)CO1 (stereo partly drawn) | 1.3 nM | 3.8 nM | 5.7 nM | 1.3 nM | 0.47 nM | 4.27 µM | 1.9 nM | 1620 nM | 0.59 nM | 84 min | 16 min | – | – | – | – | – | – | –
CCCCCOC(=O)[C@@H](NP1(=O)CO[C@@H](Cn2cnc3c(N)ncnc32)CO1)[C@@H](C)CC (stereo partly drawn) | 2 nM | 6.5 nM | 7 nM | 1.9 nM | 0.45 nM | 9.96 µM | 2.7 nM | 12000 nM | 0.54 nM | – | – | > 4400 | > 4400 | > 4400 | 1800 | 20000 | 20000 | 1800
CCCCCOC(=O)[C@H](CCSC)NP1(=O)CO[C@@H](Cn2cnc3c(N)ncnc32)CO1 (stereo partly drawn) | 8.9 nM | 29 nM | 32 nM | 5.7 nM | 2.6 nM | 4.11 µM | 11 nM | 39600 nM | 4 nM | – | – | – | – | – | – | – | – | –
CCCCCOC(=O)C[C@H](NP1(=O)CO[C@@H](Cn2cnc3c(N)ncnc32)CO1)C(=O)OCCCCC (stereo partly drawn) | 3.2 nM | 9 nM | 27 nM | 7.3 nM | 1.4 nM | 13.6 µM | 2 nM | 2730 nM | 1.5 nM | 22 min | 4 min | – | – | – | – | – | – | –
CCCCCOC(=O)[C@H](C)NP1(=O)CO[C@@H](Cn2cnc3c(N)ncnc32)CO1 (stereo partly drawn) | 20 nM | 65 nM | 64 nM | 10 nM | 2 nM | 23.5 µM | 17 nM | 3400 nM | 4.3 nM | – | – | – | – | – | – | – | – | –
